From patent US5679648A, “Methods for the treatment and prevention of fungal infections by administration of 3'-deoxypurine nucleosides” (The University Hospital, priority 1994, dated 1997)
pIC50: −log10 of the molar value. Where two headings read alike, the source gives them in different places.

Experiments:
protein kinase C (PK-C) = test: PK-C activity in TdT-positive and TdT-negative cell lines after exposure; type: cell-based
Experimental: (§1) Cell lines were maintained in FCS/DMEM (GIBCO/BRL; Grand Island, N.Y.) at 37° C. with 5% CO2 and treated with cordycepin, coformycin or cordycepin plus coformycin, or remain untreated as controls. […] Since apoptosis in normal TdT-positive thymocytes is stimulated by protein kinase A (PK-A) activity, and inhibited by protein kinase C (PK-C) activity, PK-A and PK-C activities were measured in TdT-positive and TdT-negative cell lines after exposure to cordycepin.

A. fumigatus = test: MIC of 3'-deoxynucleosides in cell cultures (microtiter plates, 24 hours); type: cell-based; conditions: Aspergillus fumigatus
Experimental: (§2) Cell cultures of various organisms were established in microtiter plates and maintained for a period of 24 hours after the addition of a 3'-deoxynucleoside (3'-dA, 3'-dG, 3'-dC, 3'-dU) (Calbiochem; San Diego, Calif.; Fluka Chemical; Ronkonkoma, N.Y.; Pharmacia Biotech; Piscataway, N.J.) or amphotericin B in μg/ml (Sigma Chemical; St. Louis, Mo.) as control.

C. tropicalis = test: as above; type: cell-based; conditions: Candida tropicalis
Experimental: as §2

C. neoformans = test: as above; type: cell-based; conditions: Cryptococcus neoformans
Experimental: as §2

Rhizopus = test: as above; type: cell-based
Experimental: as §2

C. albicans = test: as above; type: cell-based; conditions: Candida albicans
Experimental: as §2

protein kinase A (PK-A) = test: PK-A activity in TdT-positive and TdT-negative cell lines after exposure; type: cell-based
Experimental: as §1

NALM-6 = test: Cytotoxicity to neoplastic cells in tissue culture; type: cell-based; conditions: NALM-6 (TdT-positive), in the presence of coformycin; read-out: cytotoxic IC50
Experimental: (§3) Cell lines were maintained in FCS/DMEM (GIBCO/BRL; Grand Island, N.Y.) at 37° C. with 5% CO2 and treated with cordycepin, coformycin or cordycepin plus coformycin, or remain untreated as controls. In the presence of coformycin, cordycepin was specifically cytotoxic at IC50 of less than 0.5 μM for the TdT-positive cells NALM-6, HPB-ALL, MOLT-4, CEM and 8402 cells. […] The earliest manifestations of cytotoxic damage by cordycepin in TdT (terminal deoxynudeotidyl tranferase)-positive cells was the emergence of classic features of apoptosis such as membrane blebbing, volume loss, chromatin clumping and inter-nucleosomal DNA digestion into 180 base pair (bp) multiples. In contrast, the cytotoxic damage seen when TdT-negative cells are exposed to high levels (greater than 5.0 μM) of cordycepin is associated with random DNA breakdown and necrosis. Since apoptosis in normal TdT-positive thymocytes is stimulated by protein kinase A (PK-A) activity, and inhibited by protein kinase C (PK-C) activity, PK-A and PK-C activities were measured in TdT-positive and TdT-negative cell lines after exposure to cordycepin.

HPB-ALL = test: Cytotoxicity to neoplastic cells in tissue culture; type: cell-based; conditions: HPB-ALL (TdT-positive), in the presence of coformycin; read-out: cytotoxic IC50
Experimental: as §3

CEM = test: Cytotoxicity to neoplastic cells in tissue culture; type: cell-based; conditions: CEM (TdT-positive), in the presence of coformycin; read-out: cytotoxic IC50
Experimental: as §3

8402 cells = test: Cytotoxicity to neoplastic cells in tissue culture; type: cell-based; conditions: 8402 (TdT-positive), in the presence of coformycin; read-out: cytotoxic IC50
Experimental: as §3

MOLT-4 = test: Cytotoxicity to neoplastic cells in tissue culture; type: cell-based; conditions: MOLT-4 (TdT-positive), in the presence of coformycin; read-out: cytotoxic IC50
Experimental: as §3

Candida albicans [1] = test: Time to reach LD50 in Candida albicans infected mice; type: in vivo; conditions: ICR mice, 10^6 cfu C. albicans; 10 days i.p.: 3'-deoxyadenosine 1.5, deoxycoformycin 0.4, amphotericin B 1.0 mg/kg/day; control 6
Experimental: Halen Sprague Dawley ICR mice were injected with approximately 10^6 cfu Candida albicans and treated for 10 days with the following agents: 3'-deoxyadenosine (Sigma Chemical; St. Louis, Mo.) at 1.5 mg/kg/day i.p., deoxycoformycin (Sigma Chemical; St. Louis, Mo.) at 0.4 mg/kg/day i.p., amphotericin B (Sigma Chemical; St. Louis, Mo.) at 1.0 mg/kg/day i.p. Time in days to reach LD50 is shown in Table 4.

Candida albicans [2] = test: Mortality in Candida albicans infected mice; type: in vivo; conditions: ICR mice, 10^6 cfu C. albicans; for Survival After 25 Days: 10 days i.p.: 3'-deoxyadenosine 1.5, deoxycoformycin 0.4, amphotericin B 1.0 mg/kg/day, n=10, control 40%; for Survival After 15 Days: second experiment, 10 days i.p., same doses, n=8, control 0%
Experimental: Halen Sprague Dawley ICR mice were injected is with approximately 10^6 cfu of Candida albicans. Twenty-four hours after injection, mice were treated for 10 days with the indicated agents: 3'-deoxyadenosine (Sigma Chemical; St. Louis, Mo.) at 1.5 mg/kg/day i.p., deoxycoformycin (Sigma Chemical; St. Louis, Mo.) at 0.4 mg/kg/day i.p., amphotericin B (Sigma Chemical; St. Louis, Mo.) at 1.0 mg/kg/day i.p. Survival after 25 days is shown in Tables 2 and 3.

[3] = A. fumigatus, 24 hours, read-out: MIC
[4] = C. tropicalis, 24 hours, read-out: MIC
[5] = C. neoformans, 24 hours, read-out: MIC
[6] = C. albicans, 24 hours, read-out: MIC

Structure (SMILES) | MIC (A. fumigatus; [3]) [µM] | MIC (C. tropicalis; [4]) [µM] | MIC (C. neoformans; [5]) [µM] | MIC (Rhizopus; 24 hours, read-out: MIC) [µM] | MIC (C. albicans; [6]) [µM] | Days to Reach LD50 (Candida albicans [1]) [days] | Survival After 25 Days (Candida albicans [2]) [%] | Survival After 15 Days (Candida albicans [2]) [%] | further results
Nc1ncnc2c1ncn2[C@@H]1O[C@H](CO)C[C@H]1O [3'-dA, 3'-deoxyadenosine] | 5 | 20 | 20 | > 20 | 20 | 9.5 | 30 | 37.5 | PK-C activity change (protein kinase C (PK-C); TdT-negative cells): unchanged; PK-C activity change (protein kinase C (PK-C); TdT-positive cells): unchanged; PK-A activity change (protein kinase A (PK-A); TdT-negative cells): unchanged; PK-A activity increase (protein kinase A (PK-A); TdT-positive cells, within 2 hours of exposure): 8-10 fold; pIC50 (NALM-6): > 6.30; pIC50 (HPB-ALL): > 6.30; pIC50 (CEM): > 6.30; pIC50 (8402 cells): > 6.30; pIC50 (MOLT-4): > 6.30
C[C@@H]1[C@H](O)[C@@H](C)/C=C/C=C/C=C/C=C/C=C/C=C/C=C/[C@H](O[C@@H]2O[C@H](C)[C@@H](O)[C@H](N)[C@@H]2O)C[C@@H]2O[C@](O)(C[C@@H](O)C[C@@H](O)[C@H](O)CC[C@@H](O)C[C@@H](O)CC(=O)O[C@H]1C)C[C@H](O)[C@H]2C(=O)O [Amphotericin B, amphotericin B] | – | – | – | – | – | > 30 | 90 | 50.0 | MIC (A. fumigatus; 24 h): 1.25 µg/mL; MIC (C. tropicalis; 24 h): 1.25 µg/mL; MIC (C. neoformans; 24 h): 2.5 µg/mL; MIC (Rhizopus; 24 h): 2.5 µg/mL; MIC (C. albicans; 24 h): < 0.6 µg/mL
OC[C@H]1O[C@@H](n2cnc3c2NC=NC[C@H]3O)C[C@@H]1O [deoxycoformycin] | – | – | – | – | – | 5 | 30 | 25.0 | –
Nc1ccn([C@@H]2O[C@H](CO)C[C@H]2O)c(=O)n1 [3'-dC] | 20 | > 20 | > 20 | > 20 | > 20 | – | – | – | –
Nc1nc2c(ncn2[C@@H]2O[C@H](CO)C[C@H]2O)c(=O)[nH]1 [3'-dG] | > 20 | > 20 | > 20 | > 20 | > 20 | – | – | – | –
O=c1ccn([C@@H]2O[C@H](CO)C[C@H]2O)c(=O)[nH]1 [3'-dU] | > 20 | > 20 | > 20 | > 20 | > 20 | – | – | – | –
